Data: ChEMBL document CHEMBL3046726, “Cytotoxic and genotoxic potentials of newly synthesized antiviral aminopyrazoloquinoline derivatives” (Med Chem Res, 2008)

How the values were obtained:
[1] = system: MCF-10A; assay: Induction of apoptosis in Homo sapiens (human) MCF10A cells at 100 uM after 72 hr by flow cytometry; assay type: cell-based
[2] = system: MCF7; assay: Cell cycle arrest in Homo sapiens (human) MCF7 cells at 10 uM after 72 hr by flow cytometry; assay type: ADME, cell-based; conditions: mcf7, 72 h
[3] = system: MDA-MB-231; assay: Cell cycle arrest in Homo sapiens (human) MDA-MB-231 cells at 10 uM after 72 hr by flow cytometry; assay type: ADME, cell-based; conditions: mda-mb-231, 72 h
[4] = system: MCF-12A; assay: Cell cycle arrest in Homo sapiens (human) MCF12A cells at 10 uM after 72 hr by flow cytometry; assay type: ADME, cell-based
[5] = system: MDA-MB-231; assay: Induction of apoptosis in Homo sapiens (human) MDA-MB-231 cells at 10 uM after 72 hr by flow cytometry; assay type: cell-based; conditions: mda-mb-231, 72 h
[6] = system: MCF-12A; assay: Induction of apoptosis in Homo sapiens (human) MCF12A cells at 10 uM after 72 hr by flow cytometry; assay type: cell-based
[7] = system: MCF7; assay: Induction of apoptosis in Homo sapiens (human) MCF7 cells at 10 uM after 72 hr by flow cytometry; assay type: cell-based; conditions: mcf7, 72 h
[8] = system: MDA-MB-231; assay: Cytotoxicity against Homo sapiens (human) MDA-MB-231 cells at 10 uM after 72 hr; assay type: cell-based; conditions: mda-mb-231, 72 h
[9] = system: MCF-12A; assay: Cytotoxicity against Homo sapiens (human) MCF12A cells at 10 uM after 72 hr; assay type: cell-based
[10] = system: MCF7; assay: Cytotoxicity against Homo sapiens (human) MCF7 cells at 10 uM after 72 hr; assay type: cell-based; conditions: mcf7, 72 h
[11] = system: MDA-MB-231; assay: Cell cycle arrest in Homo sapiens (human) MDA-MB-231 cells assessed as accumulation at G2/M phase at 100 uM after 72 hr by flow cytometry; assay type: ADME, cell-based; conditions: mda-mb-231, 72 h
[12] = system: MCF7; assay: Cell cycle arrest in Homo sapiens (human) MCF7 cells assessed as accumulation at G2/M phase at 100 uM after 72 hr by flow cytometry; assay type: ADME, cell-based; conditions: mcf7, 72 h
[13] = system: MCF-12A; assay: Cell cycle arrest in Homo sapiens (human) MCF12A cells assessed as accumulation at G2/M phase at 100 uM after 72 hr by flow cytometry; assay type: ADME, cell-based
[14] = system: MCF-10A; assay: Cell cycle arrest in Homo sapiens (human) MCF10A cells assessed as accumulation at G2/M phase at 100 uM after 72 hr by flow cytometry; assay type: ADME, cell-based
[15] = system: MDA-MB-231; assay: Induction of apoptosis in Homo sapiens (human) MDA-MB-231 cells at 100 uM after 72 hr by flow cytometry; assay type: cell-based; conditions: mda-mb-231, 72 h
[16] = system: MCF7; assay: Induction of apoptosis in Homo sapiens (human) MCF7 cells at 100 uM after 72 hr by flow cytometry; assay type: cell-based; conditions: mcf7, 72 h
[17] = system: MCF-12A; assay: Induction of apoptosis in Homo sapiens (human) MCF12A cells at 100 uM after 72 hr by flow cytometry; assay type: cell-based
[18] = system: MDA-MB-231; assay: Cell cycle arrest in Homo sapiens (human) MDA-MB-231 cells assessed as accumulation at G2/M phase at 50 uM after 72 hr by flow cytometry; assay type: ADME, cell-based; conditions: mda-mb-231, 72 h
[19] = system: MCF7; assay: Cell cycle arrest in Homo sapiens (human) MCF7 cells assessed as accumulation at G2/M phase at 50 uM after 72 hr by flow cytometry; assay type: ADME, cell-based; conditions: mcf7, 72 h
[20] = system: MCF-12A; assay: Cell cycle arrest in Homo sapiens (human) MCF12A cells assessed as accumulation at G2/M phase at 50 uM after 72 hr by flow cytometry; assay type: ADME, cell-based
[21] = system: MCF-10A; assay: Cell cycle arrest in Homo sapiens (human) MCF10A cells assessed as accumulation at G2/M phase at 50 uM after 72 hr by flow cytometry; assay type: ADME, cell-based
[22] = system: MDA-MB-231; assay: Induction of apoptosis in Homo sapiens (human) MDA-MB-231 cells at 50 uM after 72 hr by flow cytometry; assay type: cell-based; conditions: mda-mb-231, 72 h
[23] = system: MCF7; assay: Induction of apoptosis in Homo sapiens (human) MCF7 cells at 50 uM after 72 hr by flow cytometry; assay type: cell-based; conditions: mcf7, 72 h
[24] = system: MCF-12A; assay: Induction of apoptosis in Homo sapiens (human) MCF12A cells at 50 uM after 72 hr by flow cytometry; assay type: cell-based
[25] = system: MCF-10A; assay: Induction of apoptosis in Homo sapiens (human) MCF10A cells at 50 uM after 72 hr by flow cytometry; assay type: cell-based
[26] = system: MCF7; assay: Induction of BP-DNA adduct formation in Homo sapiens (human) MCF7 cells at 100 uM after 24 hr by 32P-postlabeling technique relative to control; assay type: cell-based; conditions: mcf7, 24 h
[27] = system: MDA-MB-231; assay: Genotoxicity in Homo sapiens (human) MDA-MB-231 cells assessed as reduction of BP-DNA adduct formation at 100 uM after 24 hr by 32P-postlabeling technique; assay type: toxicity, cell-based; set-up: scale not given: the % may be the effect or the level left; conditions: mda-mb-231, 24 h
[28] = system: MCF-12A; assay: Genotoxicity in Homo sapiens (human) MCF12A cells assessed as reduction of BP-DNA adduct formation at 100 uM after 24 hr by 32P-postlabeling technique; assay type: toxicity, cell-based; set-up: scale not given: the % may be the effect or the level left
[29] = system: MCF7; assay: Cytotoxicity against Homo sapiens (human) MCF7 cells at 100 uM after 72 hr; assay type: cell-based; conditions: mcf7, 72 h
[30] = system: MCF-10A; assay: Cytotoxicity against Homo sapiens (human) MCF10A cells at 100 uM after 72 hr; assay type: cell-based
[31] = system: MCF-12A; assay: Cytotoxicity against Homo sapiens (human) MCF12A cells at 100 uM after 72 hr; assay type: cell-based
[32] = system: MDA-MB-231; assay: Cytotoxicity against Homo sapiens (human) MDA-MB-231 cells at 50 uM after 72 hr; assay type: cell-based; conditions: mda-mb-231, 72 h
[33] = system: MCF7; assay: Cytotoxicity against Homo sapiens (human) MCF7 cells at 50 uM after 72 hr; assay type: cell-based; conditions: mcf7, 72 h
[34] = system: MCF-10A; assay: Cytotoxicity against Homo sapiens (human) MCF10A cells at 50 uM after 72 hr; assay type: cell-based
[35] = system: MCF-12A; assay: Cytotoxicity against Homo sapiens (human) MCF12A cells at 50 uM after 72 hr; assay type: cell-based
[36] = system: MDA-MB-231; assay: Cytotoxicity against Homo sapiens (human) MDA-MB-231 cells at 100 uM after 72 hr; assay type: cell-based; conditions: mda-mb-231, 72 h

| SMILES | Activity [1] | Activity [2] | Activity [3] | Activity [4] | Activity [5] | Activity [6] | Activity [7] | Activity [8] | Activity [9] | Activity [10] | Activity [11] | Activity [12] | Activity [13] | Activity [14] | Activity [15] | Activity [16] | Activity [17] | Activity [18] | Activity [20] | Activity [21] | further results |
| --- | --- | --- | --- | --- | --- | --- | --- | --- | --- | --- | --- | --- | --- | --- | --- | --- | --- | --- | --- | --- | --- |
| Nc1[nH]nc2nc3ccccc3cc12 | Toxic | Non-toxic | Non-toxic | Non-toxic | Non-toxic | Non-toxic | Non-toxic | Non-toxic | Non-toxic | Non-toxic | Non-toxic | Non-toxic | Non-toxic | Non-toxic | Non-toxic | Non-toxic | Toxic | – | – | – | – |
| Cc1ccc2cc3c(N)[nH]nc3nc2c1 | Toxic | Non-toxic | Non-toxic | Non-toxic | Non-toxic | Non-toxic | Non-toxic | Non-toxic | Non-toxic | Non-toxic | Non-toxic | Non-toxic | Non-toxic | Non-toxic | Non-toxic | Non-toxic | Toxic | Non-toxic | Non-toxic | Non-toxic | Activity [19]: Non-toxic; Activity [22]: Non-toxic; Activity [23]: Non-toxic; Activity [24]: Toxic; Activity [25]: Toxic; fold change (FC) [26]: 3.5 |
| COc1ccc2cc3c(N)n[nH]c3nc2c1 | – | Non-toxic | Non-toxic | Non-toxic | Non-toxic | Non-toxic | Non-toxic | Non-toxic | Non-toxic | Non-toxic | – | – | – | – | 80% | 15% | – | 35% | 20% | 20% | Activity [23]: 10%; Activity [24]: 30%; Activity [25]: 5%; fold change (FC) [26]: 2; Activity [27]: > 60%; Activity [28]: 40%; Activity [29]: 50%; Activity [30]: 90%; Activity [31]: 90%; Activity [32]: 30%; Activity [33]: 30%; Activity [34]: 20%; Activity [35]: 20% |
| Nc1nc2c(ncn2COCCO)c(=O)[nH]1 [ACYCLOVIR] | Non-toxic | Non-toxic | Non-toxic | Non-toxic | Non-toxic | Non-toxic | Non-toxic | Non-toxic | Non-toxic | Non-toxic | Non-toxic | Non-toxic | Non-toxic | Non-toxic | Non-toxic | Non-toxic | Non-toxic | Non-toxic | Non-toxic | Non-toxic | Activity [19]: Non-toxic; Activity [22]: Non-toxic; Activity [23]: Non-toxic; Activity [24]: Non-toxic; Activity [25]: Non-toxic; Activity [36]: Non-toxic; Activity [29]: Non-toxic; Activity [30]: Non-toxic; Activity [31]: Non-toxic; Activity [32]: Non-toxic; Activity [33]: Non-toxic; Activity [34]: Non-toxic; Activity [35]: Non-toxic |
